This passage reports IC50 results from US20210070748A1, “INHIBITORS OF BRUTONS TYROSINE KINASE” (Pharmacyclics LLC, priority 2015, published 2021).

Counter-ions that a name gives are not always drawn. Like-named read-outs stand apart in the source and are kept apart here.

By IC50 is commonly meant the concentration that inhibits the measured activity by half.

Format in all cases: biochemical
The target of one experiment is T1, TEC (Homo sapiens, UniProt P42680).
T1 sequence (P42680 1-631): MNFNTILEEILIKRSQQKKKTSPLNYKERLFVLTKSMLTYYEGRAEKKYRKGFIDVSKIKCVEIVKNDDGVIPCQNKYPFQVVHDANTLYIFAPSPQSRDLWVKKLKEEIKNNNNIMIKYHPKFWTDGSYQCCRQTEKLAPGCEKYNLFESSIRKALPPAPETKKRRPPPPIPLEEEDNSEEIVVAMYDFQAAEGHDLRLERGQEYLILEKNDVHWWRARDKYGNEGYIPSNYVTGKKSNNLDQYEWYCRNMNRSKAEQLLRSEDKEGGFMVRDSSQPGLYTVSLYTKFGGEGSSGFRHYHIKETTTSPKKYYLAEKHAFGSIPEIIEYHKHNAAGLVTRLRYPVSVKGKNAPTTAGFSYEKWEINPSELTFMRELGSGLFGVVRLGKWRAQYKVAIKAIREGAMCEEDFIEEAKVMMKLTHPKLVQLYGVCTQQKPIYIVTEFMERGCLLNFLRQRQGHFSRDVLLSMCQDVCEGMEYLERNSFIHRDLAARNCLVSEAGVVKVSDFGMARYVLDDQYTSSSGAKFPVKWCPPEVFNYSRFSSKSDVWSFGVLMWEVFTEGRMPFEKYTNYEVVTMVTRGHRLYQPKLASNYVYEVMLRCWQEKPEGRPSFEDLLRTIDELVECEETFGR
The experiment is described as follows: Inhibition of a panel of kinases, in vitro HotSpot kinase assay: TEC. The conditions noted are these: E compounds, Table 17. The procedure:
(§1) The degree of inhibition of a panel of kinases is determined using the in vitro HotSpot kinase assay (purified enzymes, ^33P-ATP, an appropriate substrate and 1 μM ATP).

In another experiment the target is T2, BTK-WT (Homo sapiens, UniProt Q06187).
T2 construct: purified from insect cells as a full-length construct containing an N-terminal 6X-His tag; His6 (N); made in house; host or cells: insect cells (baculovirus Sf21 in Method B)
In words: Btk in vitro inhibitory activity (one of Method A TR-FRET, Method B electrophoretic mobility shift, Method C radiometric filter binding). A general note: A gel shift assay detects complexes by their altered migration in electrophoresis.

The target in another experiment is T3, ITK (Homo sapiens, UniProt Q08881).
T3 sequence (Q08881 1-620): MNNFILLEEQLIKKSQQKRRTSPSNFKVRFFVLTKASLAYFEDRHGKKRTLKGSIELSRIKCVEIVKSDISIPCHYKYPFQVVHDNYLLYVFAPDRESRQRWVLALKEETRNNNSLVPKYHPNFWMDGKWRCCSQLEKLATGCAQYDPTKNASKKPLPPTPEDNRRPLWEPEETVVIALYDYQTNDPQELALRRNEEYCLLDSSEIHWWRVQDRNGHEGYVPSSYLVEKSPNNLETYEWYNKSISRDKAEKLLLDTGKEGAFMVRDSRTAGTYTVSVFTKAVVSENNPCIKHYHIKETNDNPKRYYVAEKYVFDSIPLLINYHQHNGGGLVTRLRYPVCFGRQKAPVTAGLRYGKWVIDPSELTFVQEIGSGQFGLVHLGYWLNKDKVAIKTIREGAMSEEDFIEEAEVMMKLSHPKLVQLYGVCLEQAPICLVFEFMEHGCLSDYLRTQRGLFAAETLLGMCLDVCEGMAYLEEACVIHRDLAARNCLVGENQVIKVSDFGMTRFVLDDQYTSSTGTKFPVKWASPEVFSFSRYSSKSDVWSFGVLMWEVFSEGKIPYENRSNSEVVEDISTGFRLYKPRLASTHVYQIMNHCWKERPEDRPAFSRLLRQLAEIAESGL
The experiment is described as follows: Inhibition of a panel of kinases, in vitro HotSpot kinase assay: ITK. The conditions noted are these: E compounds, Table 17. Here is the method:
as §1

Another experiment has as its target T4, JAK3 (Homo sapiens, UniProt P52333).
T4 sequence (P52333 1-1124): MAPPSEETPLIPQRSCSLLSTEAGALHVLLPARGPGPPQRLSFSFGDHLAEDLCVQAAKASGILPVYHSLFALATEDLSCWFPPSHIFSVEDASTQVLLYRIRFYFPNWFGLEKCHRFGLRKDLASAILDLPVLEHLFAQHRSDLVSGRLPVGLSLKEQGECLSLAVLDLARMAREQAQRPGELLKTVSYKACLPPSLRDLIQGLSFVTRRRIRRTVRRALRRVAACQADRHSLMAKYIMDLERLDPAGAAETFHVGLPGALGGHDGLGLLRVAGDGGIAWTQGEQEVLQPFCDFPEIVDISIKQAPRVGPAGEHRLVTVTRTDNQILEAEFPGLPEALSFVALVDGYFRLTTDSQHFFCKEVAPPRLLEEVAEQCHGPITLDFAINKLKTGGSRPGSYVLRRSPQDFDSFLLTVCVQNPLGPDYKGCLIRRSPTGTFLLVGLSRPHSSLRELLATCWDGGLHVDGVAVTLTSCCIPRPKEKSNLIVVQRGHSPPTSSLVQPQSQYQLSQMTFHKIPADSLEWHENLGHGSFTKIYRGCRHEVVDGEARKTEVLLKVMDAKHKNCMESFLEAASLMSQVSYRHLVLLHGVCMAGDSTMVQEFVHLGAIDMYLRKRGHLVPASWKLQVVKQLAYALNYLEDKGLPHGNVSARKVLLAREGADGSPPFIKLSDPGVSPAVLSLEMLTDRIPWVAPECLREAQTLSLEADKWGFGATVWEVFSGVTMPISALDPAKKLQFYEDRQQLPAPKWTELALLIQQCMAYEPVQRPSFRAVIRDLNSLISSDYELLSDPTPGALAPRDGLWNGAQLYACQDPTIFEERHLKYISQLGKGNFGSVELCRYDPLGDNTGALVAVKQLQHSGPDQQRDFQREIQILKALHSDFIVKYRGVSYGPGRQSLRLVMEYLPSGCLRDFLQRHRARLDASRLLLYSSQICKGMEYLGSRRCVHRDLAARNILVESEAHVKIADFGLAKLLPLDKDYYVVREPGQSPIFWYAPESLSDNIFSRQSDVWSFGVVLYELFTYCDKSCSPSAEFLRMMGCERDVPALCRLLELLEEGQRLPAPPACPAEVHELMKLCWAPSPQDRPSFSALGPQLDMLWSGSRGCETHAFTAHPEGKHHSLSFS
The experiment is described as follows: Inhibition of a panel of kinases, in vitro HotSpot kinase assay: JAK3. The conditions noted are these: 1 μM ATP, read-out: JAK3 (IC50).

Another experiment concerns the target LCK (Homo sapiens, UniProt P06239). In words: Inhibition of a panel of kinases, in vitro HotSpot kinase assay: LCK. The conditions noted are these: 1 μM ATP, read-out: LCK (IC50).
[1] abbreviates: E compounds, Table 17, read-out: IC50 BTK-WT.
Setting [2] is: Table 10, Formula A-I, read-out: BTK-WT (IC50).

T2 sequence (Q06187 whole entry): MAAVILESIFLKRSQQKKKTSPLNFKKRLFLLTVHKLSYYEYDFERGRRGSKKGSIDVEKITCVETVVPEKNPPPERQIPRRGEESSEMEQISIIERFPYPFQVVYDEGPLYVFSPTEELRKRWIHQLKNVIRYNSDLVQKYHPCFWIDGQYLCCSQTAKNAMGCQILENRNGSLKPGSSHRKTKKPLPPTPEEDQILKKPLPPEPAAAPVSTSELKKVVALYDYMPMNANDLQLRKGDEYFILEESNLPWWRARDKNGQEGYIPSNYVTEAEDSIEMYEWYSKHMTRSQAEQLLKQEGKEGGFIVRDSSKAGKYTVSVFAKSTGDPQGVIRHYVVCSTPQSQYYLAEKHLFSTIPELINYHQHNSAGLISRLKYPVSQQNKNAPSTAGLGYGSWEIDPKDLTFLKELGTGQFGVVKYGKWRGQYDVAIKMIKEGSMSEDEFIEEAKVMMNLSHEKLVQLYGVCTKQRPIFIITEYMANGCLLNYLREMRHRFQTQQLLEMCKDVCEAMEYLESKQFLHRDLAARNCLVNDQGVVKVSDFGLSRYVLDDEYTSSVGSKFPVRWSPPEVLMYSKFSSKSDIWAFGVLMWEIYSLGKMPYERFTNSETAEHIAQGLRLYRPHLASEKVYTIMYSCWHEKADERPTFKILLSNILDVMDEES
Sequence of LCK (P06239 whole entry): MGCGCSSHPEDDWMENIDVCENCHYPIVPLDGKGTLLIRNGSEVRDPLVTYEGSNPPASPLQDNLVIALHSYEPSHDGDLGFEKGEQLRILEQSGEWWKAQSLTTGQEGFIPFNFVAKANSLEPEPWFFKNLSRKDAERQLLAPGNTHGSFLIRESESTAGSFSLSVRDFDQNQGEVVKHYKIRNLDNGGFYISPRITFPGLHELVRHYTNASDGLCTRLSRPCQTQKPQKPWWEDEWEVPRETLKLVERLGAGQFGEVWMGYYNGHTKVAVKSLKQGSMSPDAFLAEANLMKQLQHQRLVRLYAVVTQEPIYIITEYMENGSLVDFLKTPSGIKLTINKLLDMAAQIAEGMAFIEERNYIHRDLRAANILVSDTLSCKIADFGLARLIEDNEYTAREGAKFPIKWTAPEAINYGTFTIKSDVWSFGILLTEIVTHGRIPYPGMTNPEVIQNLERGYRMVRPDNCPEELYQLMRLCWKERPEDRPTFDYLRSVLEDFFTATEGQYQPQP

Consider `C=CC(=O)N1CCC[C@@H](Nc2nnc(C(N)=O)c(Nc3cccc(C(=O)NC4CC4)c3)n2)C1` [Example E-84, (R)-3-(1-acryloylpiperidin-3-ylamino)-5-(3-(cyclopropyl-carbamoyl)phenyl-amino)-1,2,4-triazine-6-carboxamide], for which the concentration for half-maximal inhibition (IC50) is at most 10 nM on TEC, at most 10 nM on BTK-WT (setting [1]) and 10 to 100 nM against ITK.
On to `C=CC(=O)N1CCC[C@@H](Nc2nnc(C(N)=O)c(Nc3cnn(C)c3)n2)C1` [Example E-73, (R)-3-(1-acryloylpiperidin-3-ylamino)-5-(1-methyl-1H-pyrazol-4-ylamino)-1,2,4-triazine-6-carboxamide], for which the half-maximal inhibitory concentration (IC50) against TEC, on BTK-WT (setting [1]) and at ITK was at most 10 nM in each case.
Consider `C=CC(=O)N1CCC[C@@H](Nc2nnc(C(N)=O)c(Nc3cccc(C(=O)N4CCOCC4)c3)n2)C1` [Example E-85, (R)-3-(1-acryloylpiperidin-3-ylamino)-5-(3-(morpholine-4-carbonyl)phenylamino)-1,2,4-triazine-6-carboxamide], for which the IC50 was at most 10 nM at TEC, at most 10 nM on BTK-WT (setting [1]) and 10 to 100 nM at ITK.
As for `C=CC(=O)N1CCC[C@@H](Nc2nnc(C(N)=O)c(Nc3ccc(I)cc3)n2)C1` [Example E-50, (R)-3-(1-acryloylpiperidin-3-ylamino)-5-(4-iodophenylamino)-1,2,4-triazine-6-carboxamide], the figures for the 50% inhibitory concentration (IC50) against TEC, at BTK-WT (setting [1]) and at ITK were at most 10 nM, at most 10 nM and 10 to 100 nM, respectively.
On to `C=CC(=O)NC[C@@H]1CCCCN1c1nnc(C(N)=O)c(Nc2ccc(C(C)C)cc2)n1` [Example E-89, (S)-3-(2-(acrylamido-methyl)piperidin-1-yl)-5-(4-isopropyl-phenylamino)-1,2,4-triazine-6-carboxamide], for which the figures for the IC50 at TEC, at BTK-WT (setting [1]) and against ITK were 100 to 1000 nM, 100 to 1000 nM and 1000 to 10000 nM, respectively.
For the compound `C=CC(=O)N1CCC[C@@H](Nc2nnc(C(N)=O)c(Nc3cnc4ccccc4c3)n2)C1` [Example E-54, (R)-3-(1-acryloylpiperidin-3-ylamino)-5-(quinolin-3-ylamino)-1,2,4-triazine-6-carboxamide], the IC50 against TEC was at most 10 nM; at BTK-WT (setting [1]) it was at most 10 nM; on ITK, 10 to 100 nM.
`C=CC(=O)N1CCC[C@@H](Nc2nnc(C(N)=O)c(Nc3ccc(C(C)C)c(C)c3)n2)C1` [Example E-42, (R)-3-(1-acryloylpiperidin-3-ylamino)-5-(4-isopropyl-3-methylphenylamino)-1,2,4-triazine-6-carboxamide]: the IC50 was at most 10 nM against TEC, at most 10 nM at BTK-WT (setting [1]) and 10 to 100 nM on ITK.
On to `CN(C)c1ccc(C(=O)N[C@@H]2CCCN(c3cnc(C(N)=O)c(Nc4ccc5ncccc5c4)n3)C2)cc1` [Example A-46, 5-[(3R)-3-[4-(dimethylamino)benzamido]piperidin-1-yl]-3-[(quinolin-6-yl)amino]pyrazine-2-carboxamide hydrochloride], for which the IC50 at JAK3 (Table 10, Formula A-I) is 1000 to 10000 nM; on BTK-WT (setting [2]) it was at most 100 nM; on LCK (Table 10, Formula A-I) it was above 10000 nM.
On to `Cc1cc(Nc2nc(N[C@H]3CCCN(C(=O)N(C)C)C3)cnc2C(N)=O)sn1` [Example C-2, 5-{[(3S)-1-(dimethylcarbamoyl)piperidin-3-yl]amino}-3-[(3-methyl-1,2-thiazol-5-yl)amino]pyrazine-2-carboxamide], for which the 50% inhibitory concentration (IC50) at JAK3 (Table 12, Formula C-I) is 100 to 1000 nM; at BTK-WT (Table 12, Formula C-I, read-out: BTK-WT (IC50)), at most 100 nM; at LCK (Table 12, Formula C-I), 100 to 1000 nM.
For the compound `Cc1cc(Nc2nc(N3CCC(CNC(=O)c4ccccc4)CC3)cnc2C(N)=O)sn1` [Example A-76, 3-[(3-methyl-1,2-thiazol-5-yl)amino]-5-{4-[(phenylformamido)methyl]piperidin-1-yl}pyrazine-2-carboxamide], the IC50 on JAK3 (Table 10, Formula A-I) was below 100 nM; on BTK-WT (setting [2]), at most 100 nM; at LCK (Table 10, Formula A-I) it was 100 to 1000 nM.
Take `NC(=O)c1ncc(N2CCC[C@@H](NC(=O)N3Cc4ccccc4C3)C2)nc1Nc1ccc(C2CCN(C3CCCC3)CC2)cc1` [Example A-5, N-[(3R)-1-(5-carbamoyl-6-{[4-(1-cyclopentylpiperidin-4-yl)phenyl]amino}pyrazin-2-yl)piperidin-3-yl]-2,3-dihydro-1H-isoindole-2-carboxamide hydrochloride]: the IC50 is 100 to 1000 nM on JAK3 (Table 10, Formula A-I); at most 100 nM on BTK-WT (setting [2]); 100 to 1000 nM at LCK (Table 10, Formula A-I).
Consider `Cc1cccc(C(=O)N[C@@H]2CCCN(c3cnc(C(N)=O)c(Nc4cc(C)ns4)n3)C2)c1` [Example A-33, 3-[(3-methyl-1,2-thiazol-5-yl)amino]-5-[(3R)-3-(3-methylbenzamido)piperidin-1-yl]pyrazine-2-carboxamide], for which the IC50 was 1000 to 10000 nM at JAK3 (Table 10, Formula A-I); at most 100 nM at BTK-WT (setting [2]); 100 to 1000 nM at LCK (Table 10, Formula A-I).
Turning to `Cc1cc(Nc2cc(N3CCC[C@@H](NC(=O)N4Cc5ccccc5C4)C3)cnc2C(N)=O)sn1` [Example A-18, N-[(3R)-1-{6-carbamoyl-5-[(3-methyl-1,2-thiazol-5-yl)amino]pyridin-3-yl}piperidin-3-yl]-2,3-dihydro-1H-isoindole-2-carboxamide], the IC50 on JAK3 (Table 10, Formula A-I) is above 10000 nM; on BTK-WT (setting [2]) it was at most 100 nM; on LCK (Table 10, Formula A-I) it was above 10000 nM.
Consider `Cc1cc(Nc2nc(N3CCC[C@@H](NC(=O)C4CCCCC4)C3)cnc2C(N)=O)sn1` [Example A-28, 5-[(3R)-3-cyclohexaneamidopiperidin-1-yl]-3-[(3-methyl-1,2-thiazol-5-yl)amino]pyrazine-2-carboxamide], for which the half-inhibitory concentration (IC50) is 1000 to 10000 nM on JAK3 (Table 10, Formula A-I); at most 100 nM on BTK-WT (setting [2]); 100 to 1000 nM on LCK (Table 10, Formula A-I).
